Data set [1] has as its system RNAse-aggregated proteins from human neurons. Nature of the data set: RNA-mediated re-folding of RNAse-aggregated proteins. Format: biochemical. Particulars: for protein solubilising effect of G-quadruple-forming and non-forming oligos: RNAse aggregated proteins from human neurons, aggregated proteins quantified. As to the method: Proteins were isolated from neuronal lysate by RNAse A/T1 treatment and centrifugation. Pelleted proteins were dissolved in 50 μl of denaturation buffer (20 mM Tris-HCl pH 7.5, 6 M Guanidine hydrochloride, 1% Triton X-100, 20 mM DTT) and sonicated for 5 min at room temperature. […] Dialysis was performed against 600 ml PBS buffer at 4° C. overnight after which the PBS was replaced with fresh PBS (400 ml) and the container placed in a water bath and kept at 37° C. for 1 h. The dialysed samples were transferred to 1.5 ml tubes and the volume adjusted to 100-200 μl with PBS. 7.5-10% of this was taken as Input. Precipitated proteins (Pel 1) were pelleted by centrifugation at 21.000×g for 10 min at +4° C., washed twice in RIPA buffer and processed for SDS-PAGE as before. 7.5-10% of the supernatants was saved (Sup 1) and the remaining volume was either divided into two new tubes supplemented with 0.5 μl vehicle or 0.5 μl RNAse A/T1 or the whole sample placed in one tube and treated with 0.5 μl RNAse A/T1. All samples were incubated at 37° C. for one hour and centrifuged as before. Pelleted proteins (P2) were washed as before and dissolved in SDS/Urea and sonicated. Equal volumes of each fraction were separated on SDS-PAGE gels and then either stained with coomassie or transferred to membranes for western blot analysis. RNA was isolated from cell lysates and purified ribosomes with Trizol LS (Life Technologies) according to the manufacturer's instructions. Ribosomes were isolated from Jurkat T-cells. RNA depleted for rRNA was isolated from the upper two thirds of the supernatant (after pelleting of ribosomes and five times dilution in water) with acid phenol (Life Technologies) followed by EtOH precipitation. RNA from intact cells was isolated with Isol-RNA Lysis Reagent (5 PRIME), according to the manufacturer's instructions. All RNA samples were dissolved in TE (10 mM Tris-HCl pH 8.0, 1 mM EDTA). RNA was analysed by 1.5% agarose or 6% PAGE/8M Urea gel electrophoresis and visualised with Ethidium Bromide. […]

Data set [2] deals with cell or tissue lysate treated with RNAse A/T1. The data set is described as follows: Sodium orthovanadate: impact on RNAse-induced protein aggregation.
Protocol: Cell or tissue lysate was prepared as described above. Lysate (200 μg at 2 μg/ul) is then treated with a mixture of RNAse A and T1 (A/T1), and incubated with increasing concentrations of Sodium Orthovanadate for one hour at 37° C. Aggregated proteins were isolated by centrifugation (21.000×g) at 4° C. for 20 min, washed twice in 500 μl RIPA buffer and then dissolved in 12 μl 6M Guanidine Hydrochloride, 20 mM Tris-HCl pH 7.5 by sonication for 5 min at room temperature. The amount of protein in 5 μl of this solution was then determined by using the BCA Kit (Thermo Scientific) according to the manufacturer's protocol. Data were expressed in arbitrary units (AU) as a fraction of the amount aggregated proteins (P1)/the amount of protein in the Input, and represent mean±s.d, n=2. […] The experiment was repeated with 50 μM SO and increasing concentrations of RNAse A/T1.
Data set [3] concerns aggregated proteins from Jurkat T-cells. Nature of the data set: Two-step refolding of proteins with small molecules or synthetic DNA/RNA. To be noted: increasing concentrations.
In data set [4] the test system is lysate from mouse cortex. The data set is described as follows: Ribonucleoside vanadyl: impact on protein aggregation. The data set is classed as biochemical. Particulars: 10 mM, 1 hour at 37° C., coomassie SDS-PAGE.
For data set [5], the system named is amyloid-β, tau (MAPT), α-synuclein (SNCA), TARDBP (TDP-43), FUS, HTT, PrP, HNRNPA1, actin, NF-H in human neuronal lysates.
Data set [6] concerns Huntingtin (HTT), FUS and TARDBP in Jurkat cell lysates. Format: biochemical, human. Particulars: 15 min treatment, then 1 hour at 37° C.

Experimental findings from patent US20170202878A1, “Method for Preventing or Treating a Protein Aggregation Disease” (Queen Mary University of London, priority 2014, published 2017) are described below.

For the molecule “18S 1129-69: predicted G4-forming ssDNA oligo derived from human 18S ribosomal RNA, 40 nt”, the “protein solubilising effect of G-quadruple-forming and non-forming oligos” value in data set [1] was “can solubilise the proteins”.
In the case of `[Na+].[Na+].[Na+].[O]=[V]([O-])([O-])[O-]` [Sodium orthovanadate], in data set [2], the “background protein aggregation in lysate” value is listed as “prevents any background protein aggregation”. In addition, the “inhibition of RNAse mediated protein aggregation” value in data set [2] (added to cell or tissue lysate together with RNAses, 1 hour at 37° C., e.g. TDP-43 and huntingtin) is reported as “completely inhibit aggregation of the proteins”. Besides, the “prevention of protein aggregation after refolding (BCA assay)” value in data set [3] is “can mimic RNA/DNA in preventing protein aggregation after refolding”.
Take “No 4G 1129-69: oligo with same nucleotides as 18S 1129 in an order not predicted to form G-quadruples (DNA TTAAGGGCATCTGATGCGGCGCGTGACGCGGCGCTAAGTG; DNA, backbone not given here)”: the “protein solubilising effect of G-quadruple-forming and non-forming oligos” value in data set [1] is listed as “much less efficient”.
Take Ribonucleoside vanadyl: the “protein aggregation in lysate in the absence of exogenous RNAse” value is given as “causes substantial protein aggregation” in data set [4] and “causes protein aggregation” in data set [4] (listed as Riobonucleoside vanadyl (VA)).
For the molecule heparin, the “re-folding / solubilisation of RNAse-aggregated proteins (global protein profile)” value in data set [1] (denatured in 6M guanidine hydrochloride, dialysed, same amount in weight of nucleic acid or heparin) is reported as “neither yeast tRNA nor heparin could substitute for the solubilising capacity of total human RNA”.

B1: RNase T1: ribonuclease cleaving single-stranded RNA after G (protein, UniProt P00651 27-130, looked up)
Guanyl-specific ribonuclease …: ACDYTCGSNCYSSSDVSTAQAAGYQLHEDGETVGSNSYPHKYNNYEGFDFSVSSPYYEWPILSSGDVYSGGSPGADRVVFNENNQLAGVITHTGASGNNFVECT
For the molecule B1, the “proteins most efficiently precipitated by the RNase (western blot)” value in data set [5] is given as “FUS”.

B2: immobilised RNAse A: biotinylated RNAse A coupled to magnetic strepavidine beads (protein, UniProt P61823 27-150, looked up)
Ribonuclease pancreatic: KETAAAKFERQHMDSSTSAASSSNYCNQMMKSRNLTKDRCKPVNTFVHESLADVQAVCSQKNVACKNGQTNCYQSYSTMSITDCRETGSSKYPNCAYKTTQANKHIIVACEGNPYVPVHFDASV
modifications: biotinylated, coupled to streptavidin magnetic beads
Regarding B2, the “aggregation of HTT, FUS and TARDBP after mixing 10% treated lysate with non-treated lysate (western blot)” value in data set [6] is given as “increase in aggregation”.

B3: RNase A: ribonuclease cleaving single-stranded RNA after C and U, from Sigma (protein)
chain: B2 Ribonuclease pancreatic
B3: the “proteins most efficiently precipitated by the RNase (western blot)” value in data set [5] was “TARDBP, HTT and PrP”.
